Reference: publication PMC12040169 (PLOS Biology, 2025)

Assay: in vitro
Details: human, hela cells, % viability

Compound | viability at 28.5 h, 10 µM [%]
C[C@@H](c1ccccc1)n1c(=O)[nH]c2ncc(-c3ccc(N(C)C)cc3)nc21 [CBK064352] | 103
CCCc1c(OCCCCc2nnn[nH]2)ccc(C(C)=O)c1O [CBK007468] | 90.4
O=C(NCc1ccc2c(c1)OCO2)[C@H]1CN2CCC1C[C@@H]2Cn1cc(-c2ccccn2)nn1 (some centres unmarked) [CBK289082] | 102
O=C(C1=C(O)C(=O)N(CCN2CCOCC2)C1c1cccnc1)c1ccco1 (centres unmarked) [CBK264570] | 97.4
CC(C)Nc1nccnc1OCCc1c[nH]c2ccccc12 [CBK115647] | 79.7
COc1ccc2c(c1)C1(CC(=O)N(Cc3ccccc3)C1=O)C(=O)N2CCCN1C(=O)c2ccccc2C1=O (centres unmarked) [CBK075501] | 93.4
Cc1nn2cc(-c3n[nH]cc3[N+](=O)[O-])cnc2c1C(=O)O [CBK268883] | 98.3
O=C(O)CCc1ccc(-c2ccccc2)n1CC1CCCO1 (centres unmarked) [CBK267955] | 102
Cc1cc(Br)c(NCC(=O)N/N=C/c2ccc(O)cc2)c(Br)c1 [CBK263506] | 101
CC(=O)NC1CCN(CC2(c3cccc(F)c3)CCCC2)CC1 [CBK282590] | 95.7
Nc1nc(=O)[nH]c2c1ncn2[C@@H]1O[C@H](CO)[C@H](O)C1O (some centres unmarked) [CBK201282] | 93.7
CCN1CCCC1CN(Cc1cnn(C)c1)Cc1ccco1 (centres unmarked) [CBK282470] | 96.6
Cn1c(=O)c2[nH]c(NCCc3ccc(Cl)cc3)nc2n(C)c1=O [CBK269794] | 92
Cc1nn(C)c(C)c1NC(=O)COc1ccc(C#N)cc1 [CBK306011] | 87.5
Cc1ccc(NC(=O)C(=O)NCCCn2ccnc2)cc1Cl [CBK264238] | 92.2
COc1ccc(C(=O)Nc2nsc(-c3ccccc3)n2)cc1 [CBK113233] | 97.2
CCOC(=O)CN1CCC(Oc2nccnc2OCCN2CCOCC2)CC1 [CBK082929] | 103
CN(C)C(=O)c1ccc(-c2ccc(OC3CCN(C(=O)CCc4cccnc4)CC3)nc2)cc1 [CBK155049] | 93.3
CC1CC(C)CN(C(=O)CN2C3CCC2CC(O)(c2ccco2)C3)C1 (centres unmarked) [CBK284032] | 92.5
CSc1ccc(/C=C(\C#N)c2nn(-c3ccccc3)c(N)c2C#N)cc1 [CBK262339] | 105
c1ccc(CN2CCC[C@H]2c2nc(-c3ccc(-c4cncnc4)nc3)no2)cc1 [CBK288891] | 87.5
O=C(c1ccccc1)N1C[C@H](c2ccsc2)[C@H]2CN(Cc3cccs3)CC[C@H]21 [CBK285623] | 95.8

Compound | viability at 28.5 h, 10 µM [%]
O=C(NCCc1cnc[nH]1)NC1CCCCC1 [CBK269975] | 100
O=C(c1ccccc1-n1cccc1)N1CCCC1 [CBK149608] | 81.6
Cc1cccc(NC(c2ccc(C)s2)c2ccc3ccc(C)nc3c2O)n1 (centres unmarked) [CBK266408] | 94.2
OCc1ccccc1-c1cncc(Nc2cccc(Cl)c2)n1 [CBK065400] | 102
CC(C)C[C@H]1NC(=O)[C@@H]2C[C@@H](NC(=O)CS(=O)(=O)c3ccccc3)CCN2C1=O [CBK289554] | 89.1
Cc1ncccc1OC1(C(=O)NCc2n[nH]c3c2CCC3)CCNCC1 [CBK307057] | 101
COc1ccc(S(=O)(=O)Nc2ccncc2)cc1N(C)S(=O)(=O)c1ccccc1 [CBK267179] | 103
CCCc1cc(=O)n2c(n1)SCOC2 [CBK010967] | 108
O=C(COc1ccccc1)N1CCC(Oc2nccnc2OCc2ccc(Cl)c(Cl)c2)CC1 [CBK160718] | 99
COCC(C)NC(=O)Cn1c(-c2cccs2)cc2cccnc21 (centres unmarked) [CBK282557] | 81.8
Cc1ccc(S(=O)(=O)c2cc3c(=O)n4ccccc4nc3n(CCN3CCOCC3)c2=N)cc1 [CBK265637] | 80.3
O=C(Cn1c(C2CCCNC2)cc2cccnc21)N1CCCCCC1 (centres unmarked) [CBK285014] | 86.3
CCN1CCN(c2ccc(N3C(=O)N[C@@H](C(C)C)C3=O)cc2)CC1 [CBK287953] | 87.5
CCN(CC)CCN(CC(=O)Nc1c(C)cccc1Cl)Cc1ccccc1 [CBK023143] | 97.7
c1ccc(CCNc2nccnc2-c2ccoc2)nc1 [CBK036790] | 86.1
CC(C)(C)NCC(O)COc1ccc(Cl)cc1Cl (centres unmarked) [CBK025597C] | 101
CCc1cc2c3c(c(=O)oc2cc1OCc1cc(C(=O)O)oc1C)CCCC3 [CBK264402] | 98.8
CCOC(=O)c1c(NC(=O)CSc2n[nH]c(N)n2)sc(C)c1C [CBK266412] | 94.4
CCCC1CN(C)c2ccccc2C1=O (centres unmarked) [CBK023527] | 87
C(=N/OCc1ccccc1)/c1c[nH]c2ccccc12 [CBK168629] | 79.3
CN1CCC(C(=O)NC(=O)NC2CCCCC2)CC1 [CBK034825] | 112
CNS(=O)(=O)c1cccc2c1CCN(C(=O)NC1CCOC1)C2 (centres unmarked) [CBK306172] | 106

Compound | viability at 28.5 h, 10 µM [%]
Cc1ccc2nc(-c3ccc(N4C(=O)CC(N5CCN(CCOCCO)CC5)C4=O)cc3)sc2c1 (centres unmarked) [CBK265362] | 86.1
COc1ccc(-c2cc3cccn(CC(=O)N(C)C)c-3n2)cc1 [CBK285382] | 105
C1=CCC(CN(CCCn2ccnc2)CC2CCOC2)CC1 (centres unmarked) [CBK283217] | 88.8
CCn1c(=O)oc2cc(NC(=O)NCCN3CCCCC3CO)ccc21 (centres unmarked) [CBK306565] | 107
Cc1c(Cl)cccc1S(=O)(=O)Nc1ccsc1C(=O)O [CBK004549] | 97.7
c1cc(-c2cncc(-c3ccsc3)n2)cs1 [CBK113356] | 95.7
Cc1cc(N2CCOCC2)c2c(N)c(C)cc(C)c2n1 [CBK126908] | 83.8
O=CN1CCc2c([nH]c3ccccc23)C12CCN(CC1CC1)CC2 [CBK040315] | 91.8
Cc1nn(-c2ccccc2)c(Cl)c1CN1C(=O)NC2(CCCC2)C1=O [CBK305070] | 91.9
CCOC(=O)c1nc(C)sc1-c1ccnn1S(C)(=O)=O [CBK007130] | 108
CCCn1nc(C)c(CN(C)Cc2n[nH]c3c2CCCC3)c1C [CBK282600] | 95.4
CCCN1CC(NS(=O)(=O)c2ccc(OC)c3c2CCCC3)CC1=O (centres unmarked) [CBK307098] | 79.7
CCOC(=O)c1ccccc1OC(=O)c1ccc2c(c1)C1C=CCC1C(C(=O)O)N2 (centres unmarked) [CBK265155] | 101
CN(C)C(=O)C1(Cc2ccc(-c3cccs3)cc2)CCN(C(=O)Cc2ccccc2)CC1 [CBK285784] | 93.2
CC1Cc2ccccc2N1C(=O)CSc1nnc2sc3ccccc3n12 (centres unmarked) [CBK265398] | 94
CCCC(=O)c1ccc(S(=O)(=O)N2CCN(Cc3ccc(O)c(F)c3)CC2)cc1 [CBK062959] | 111
O=C(NC1CCNC1)c1ccc(F)cc1 (centres unmarked) [CBK281632] | 87.2
O=C(O)COc1cccc2ccccc12 [CBK218704] | 106
CN1CCCN(c2nccnc2-c2ccccc2CO)CC1 [CBK038014] | 106
COC(=O)c1c(C)[nH]c(C(=O)N2CCCC2c2cccnc2)c1C (centres unmarked) [CBK296639] | 98.8
O=C(CCCOc1ccc(Cl)cc1)n1ccn(CCc2cccs2)c1=O [CBK106614] | 104
Cc1ccc(-c2ncc(OCC3CCCN3C)nc2N)c(C)c1 (centres unmarked) [CBK145137] | 99.2

Compound | viability at 28.5 h, 10 µM [%]
O=C(O)c1[nH]c2ccccc2c1NS(=O)(=O)c1cc(F)c(Br)cc1F [CBK049885] | 62.8
Cn1c(=O)[nH]c(=O)c2[nH]c(CN3CCN(Cc4ccccc4)CC3)nc21 [CBK269592] | 98.5
O=C(CC(CN1CCCCC1)C(=O)O)Nc1cccc(O)c1 (centres unmarked) [CBK286788] | 114
Cc1c(C(=O)N2CC(n3cc(C(C)O)nn3)C2)sc2ccc(F)cc12 (centres unmarked) [CBK305446] | 94.5
O=S(=O)(NC(c1c[nH]c2ccccc12)C(Cl)(Cl)Cl)c1ccccc1 (centres unmarked) [CBK263279] | 91.7
Cc1ccc(Cn2nc(NC(=O)c3ccccc3)c3ccccc32)cc1 [CBK048213] | 97.5
CC(C)c1ccsc1C(=O)N1CCC2(C1)NC(=O)NC2=O (centres unmarked) [CBK305188] | 87.1
CN(c1ncc(Br)cc1C(=O)Nc1ccc(C(F)(F)F)cc1)S(C)(=O)=O [CBK076542] | 93.3
CCNS(=O)(=O)c1ccc(CCC(=O)Nc2ccc3c(c2)OCO3)cc1 [CBK268367] | 101
COC(=O)c1ccsc1NC(=O)CN1CCNCC1 [CBK057080] | 88.5
COc1ccc(-c2cc(C(=O)Nc3ccc(CCO)cc3)cnc2-c2cccc(C)c2)cn1 [CBK037461] | 91.8
CCCNC(=O)CN(C)Cc1cn2cccc(C)c2n1 [CBK304800] | 85.2
CCOc1cc(C(O)c2nnc(-c3ccccc3)o2)ccc1OCC(C)C (centres unmarked) [CBK132385] | 89.1
O=C(Nc1cccc(C(F)(F)F)c1)c1nc[nH]n1 [CBK027341] | 89.4
Nc1ncc(-c2cccc(/C=C/C(=O)O)c2)nc1NCc1ccco1 [CBK063691] | 98.7
Nc1nc(CSc2nnc(-c3ccncc3)o2)nc(Nc2ccc(F)cc2)n1 [CBK266221] | 116
CC(C)OC(=O)c1cc2c(ccn2-c2ccc(F)cc2)n1CCC#N [CBK123921] | 95
CS(=O)(=O)N(CC(=O)NC1CCCCC1)c1cccc2ccccc12 [CBK263770] | 83.9
Cc1cc(S(=O)(=O)NC(=O)CC2CCOc3ccccc32)c(C)o1 (centres unmarked) [CBK304499] | 105

Same assay, conditions: human, hela cells, % viability, bulk resorufin, single well

Compound | viability at 28.5 h, 10 µM [%]
O=C1NC(=O)N(c2ccc(Cl)cc2)C(=O)/C1=C\NC(CO)(CO)CO [CBK264421] | 99.7
Cc1ccc(Cn2nc(C(=O)NCC3COc4ccccc4O3)c3ccccc32)cc1 (centres unmarked) [CBK047831] | 91.2
Fc1ccc(-c2ccc3c(c2)COC2(CCNCC2)O3)c(F)c1 [CBK060917] | 96
COc1cc(C=C2C(=O)NC(=O)NC2=O)cc(I)c1OCc1ccc(Cl)cc1Cl [CBK262528] | 91.8
